One assay concerns HCV 1b-377-neo replicon cells. Put plainly: HCV Replicon assay, HCV 1b-377-neo replicon cells. It counts as cell-based, HCV 1b genotype. The following applies: Hepatitis C virus, read-out: EC50 against HCV 1b (Activity or Range). The protocol:
An HCV Replicon assay was utilized in the present disclosure, and was prepared, conducted and validated as described in commonly owned PCT/US2006/022197 and in O'Boyle et. al. Antimicrob Agents Chemother. 2005 April; 49(4):1346-53.
HCV 1b-377-neo replicon cells were used to test the currently described compound series as well as cells resistant to compound A containing a Y2065H mutation in NS5A (described in application PCT/US2006/022197). The compounds tested were determined to have more than 10-fold less inhibitory activity on cells containing the mutation than wild-type cells indicating a related mechanism of action between the two compound series. Thus, the compounds of the present disclosure can be effective to inhibit the function of the HCV NS5A protein and are understood to be as effective in combinations as previously described in application PCT/US2006/022197 and commonly owned WO/O4014852. Further, the compounds of the present disclosure can be effective against the HCV 1b genotype. It should also be understood that the compounds of the present disclosure can inhibit multiple genotypes of HCV. […] In one embodiment compounds of the present disclosure are active against the 1a, 1b, 2a, 2b, 3a, 4a, and 5a genotypes.
In general terms: A replicon is a self-replicating genome or part of one, used to study replication in cells.
As a reminder, the EC50 is the midpoint of the concentration-response curve. As to `COC(=O)N[C@H](C(=O)N(C)[C@@H](C)c1ncc(-c2ccc(-c3ccc4c(c3)CCCc3[nH]c([C@@H]5CCCN5C(=O)[C@@H](NC(=O)OC)C(C)C)nc3-4)cc2)[nH]1)C(C)C` [Example 22e], the EC50 was determined as 0.003 nM. For `COC(=O)N[C@H](C(=O)N1CCC[C@H]1c1ncc(-c2ccc(-c3ccc4c(c3)Cc3nc([C@@H]5CCCN5C(=O)[C@@H](NC(=O)OC)C(C)C)[nH]c3CC4)cc2)[nH]1)C(C)C` [Example 22p], the EC50 was 0.16 nM. Take `CCN(CC)[C@@H](C(=O)N1CCC[C@H]1c1nc2c([nH]1)CCCc1cc(-c3ccc(-c4[nH]c([C@@H]5CCCN5C(=O)[C@@H](c5ccccc5)N(CC)CC)nc4CC(F)(F)F)cc3)ccc1-2)c1ccccc1` [Example 22a.3]: the EC50 stood at 0.01 nM. Still for that read-out and setting: then `COC(=O)N[C@H](C(=O)N1CCC[C@H]1c1ncc(-c2ccc(-c3ccc4c(c3)CCCc3[nH]c([C@@H]5CCCN5C(=O)[C@@H](NC(=O)OC)C(C)C)nc3-4)cc2)[nH]1)C(C)C` [Example 22], with 0.005 nM; and `COC(=O)N[C@@H](C)C(=O)N1CCC[C@H]1c1ncc(-c2ccc(-c3ccc4c(c3)CCCc3[nH]c([C@@H]5CCCN5C(=O)[C@H](C)NC(=O)OC)nc3-4)cc2F)[nH]1` [Example 22g.2], with 0.02 nM; and `COC(=O)N[C@H](C(=O)N1CCC[C@H]1c1nc2c([nH]1)CCCc1cc(-c3ccc(-c4cnc([C@@H]5CCCN5C(C)=O)[nH]4)cc3)ccc1-2)C(C)C` [Example 24], with 0.32 nM. On the same count and under the same terms, for `COC(=O)N[C@@H](C(=O)N1CCC[C@H]1c1nc2c(ccc3cc(-c4ccc5c(ccc6nc([C@@H]7CCCN7C(=O)[C@H](NC(=O)OC)c7ccccc7)[nH]c65)c4)ccc32)[nH]1)c1ccccc1` [Example 22u.2b] the value was 0.02 nM.

The same assay, now with this note: Hepatitis C virus, read-out: EC50 against HCV 1b (Activity or Range), range class.
For the molecule `CCN(CC)[C@@H](C(=O)N1CC(F)(F)C[C@H]1c1ncc(-c2ccc(-c3ccc4c(c3)CCCc3[nH]c([C@@H]5CCCN5C(=O)[C@@H](c5ccccc5)N(CC)CC)nc3-4)cc2)[nH]1)c1ccccc1` [Example 22h.1], the EC50 lay in the range of 0.001 to 0.1 nM.

For the molecule `CCN(CC)[C@@H](C(=O)N1CC(F)(F)C[C@H]1c1ncc(-c2ccc(-c3ccc4c(ccc5[nH]c([C@@H]6CC(F)(F)CN6C(=O)[C@@H](c6ccccc6)N(CC)CC)nc54)c3)cc2)[nH]1)c1ccccc1` [Example 22w.2a], the EC50 is 0.001 to 0.1 nM. The same measure, in the same setting: for `COC(=O)N[C@@H](C(=O)N1[C@@H]2C[C@@H]2C[C@H]1c1ncc(-c2ccc(-c3ccc4c(ccc5[nH]c([C@@H]6C[C@H]7C[C@H]7N6C(=O)[C@H](NC(=O)OC)c6ccccc6)nc54)c3)cc2F)[nH]1)c1ccccc1` [Example 22v.1b] the value was 0.001 to 0.1 nM; for `COC(=O)N[C@H](C(=O)N1[C@@H]2C[C@@H]2C[C@H]1c1nc2c([nH]1)CCc1cc(-c3ccc4c(c3)CCc3[nH]c([C@@H]5C[C@H]6C[C@H]6N5C(=O)[C@@H](NC(=O)OC)C(C)C)nc3-4)ccc1-2)C(C)C` [Example 22r.5], 0.001 to 0.1 nM; for `COC(=O)N[C@H](C(=O)N1CC(F)(F)C[C@H]1c1ncc(-c2ccc(-c3ccc4c(c3)CCCc3[nH]c([C@@H]5CCCN5C(=O)[C@@H](NC(=O)OC)C(C)C)nc3-4)cc2)[nH]1)C(C)C` [Example 22h], 0.001 to 0.1 nM. In the case of `COC(=O)N[C@H](C(=O)N1[C@@H]2C[C@@H]2C[C@H]1c1ncc(-c2ccc(-c3ccc4c(c3)CCc3[nH]c([C@@H]5C[C@H]6C[C@H]6N5C(=O)[C@@H](NC(=O)OC)C(C)C)nc3-4)cc2F)[nH]1)C(C)C` [Example 22s.1], the EC50 lay in the range of 0.001 to 0.1 nM. Same read-out and setting: for `COC(=O)N[C@@H](C)C(=O)N1CCC[C@H]1c1ncc(-c2ccc(-c3ccc4c(c3)CCCc3[nH]c([C@@H]5CCCN5C(=O)[C@H](C)NC(=O)OC)nc3-4)cc2)[nH]1` [Example 22.2] the value was 0.001 to 0.1 nM; for `CCN(CC)[C@@H](C(=O)N1CCC[C@H]1c1ncc(-c2ccc(-c3ccc4c(c3)CCc3[nH]c([C@@H]5CCCN5C(=O)[C@@H](c5ccccc5)N(CC)CC)nc3-4)cc2F)[nH]1)c1ccccc1` [Example 22s.a], 0.001 to 0.1 nM.

Regarding `COC(=O)N[C@@H](C(=O)N1[C@@H]2C[C@@H]2C[C@H]1c1ncc(-c2ccc(-c3ccc4c(c3)CCc3[nH]c([C@@H]5C[C@H]6C[C@H]6N5C(=O)[C@H](NC(=O)OC)c5ccccc5)nc3-4)cc2F)[nH]1)c1ccccc1` [Example 22s.1b], the EC50 was 0.001 to 0.1 nM. As to `COC(=O)N[C@H](C(=O)N1CCC[C@H]1c1nc2ccc3cc(-c4ccc5c(ccc6[nH]c([C@@H]7CCCN7C(=O)[C@@H](NC(=O)OC)C7CCOCC7)nc65)c4)ccc3c2[nH]1)C(C)C` [Example 24.1b], the EC50 was in the range of 0.001 to 0.1 nM.

As to `CCN(CC)[C@@H](C(=O)N1CCC[C@H]1c1ncc(-c2ccc(-c3ccc4c(c3)CCc3[nH]c([C@@H]5CC(F)(F)CN5C(=O)[C@@H](c5ccccc5)N(CC)CC)nc3-4)cc2)[nH]1)c1ccccc1` [Example 22t.1a], the EC50 fell in the range of 0.001 to 0.1 nM. The same measure, in the same setting: then `CCN(CC)[C@@H](C(=O)N1[C@@H]2C[C@@H]2C[C@H]1c1nc2c(ccc3cc(-c4ccc5c(ccc6nc([C@@H]7C[C@H]8C[C@H]8N7C(=O)[C@@H](NC(=O)OC)C(C)C)[nH]c65)c4)ccc32)[nH]1)c1ccccc1` [Example 24.2], with 0.001 to 0.1 nM; and `COC(=O)N[C@H](C(=O)N(C)[C@@H](C)c1nc2c([nH]1)CCOc1cc(-c3ccc(-c4cnc([C@@H]5CCCN5C(=O)[C@@H](NC(=O)OC)C(C)C)[nH]4)cc3)ccc1-2)C(C)C` [Example 22b.2], with 0.001 to 0.1 nM; and `COC(=O)N[C@H](C(=O)N1CCC[C@H]1c1ncc(-c2ccc(-c3ccc4c(ccc5[nH]c([C@@H]6CCCN6C(=O)[C@@H](NC(=O)OC)C(C)C)nc54)c3)cc2)[nH]1)C(C)C` [Example 22u], with 0.001 to 0.1 nM.

On to `COC(=O)N[C@H](C(=O)N1CCC[C@H]1c1ncc(-c2ccc(-c3ccc4c(c3)CCCc3[nH]c([C@@H]5CCCN5C(=O)[C@@H](NC(=O)OC)[C@@H](C)OC)nc3-4)cc2F)[nH]1)[C@H](C)OC` [Example 22g.3], for which the EC50 fell in the range of 0.001 to 0.1 nM. `COC(=O)N[C@H](C(=O)N1CCC[C@H]1c1ncc(-c2ccc(-c3ccc4c(c3)CCc3[nH]c([C@@H]5CC(F)(F)CN5C(=O)[C@@H](NC(=O)OC)C(C)C)nc3-4)cc2)[nH]1)C(C)C` [Example 22t.1]: the EC50 fell in the range of 0.001 to 0.1 nM. Same read-out and setting: then `COC(=O)N[C@H](C(=O)N1CCC[C@H]1c1nc2c([nH]1)CCCc1cc(-c3ccc4c(c3)CCCc3[nH]c([C@@H]5CCCN5C(=O)[C@@H](NC(=O)OC)C(C)C)nc3-4)ccc1-2)C(C)C` [Example 22k], with 0.001 to 0.1 nM; and `COC(=O)N[C@H](C(=O)N1[C@@H]2C[C@@H]2C[C@H]1c1ncc(-c2ccc(-c3ccc4c(c3)CCc3[nH]c([C@@H]5C[C@H]6C[C@H]6N5C(=O)[C@@H](NC(=O)OC)C(C)C)nc3-4)cc2)[nH]1)C(C)C` [Example 22r.2], with 0.001 to 0.1 nM.

For `COC(=O)N[C@H](C(=O)N1CCC[C@H]1c1nc2c([nH]1)CCCc1cc(-c3ccc(-c4[nH]c([C@@H]5CCCN5C(=O)[C@@H](NC(=O)OC)C(C)C)nc4CC(F)(F)F)cc3)ccc1-2)C(C)C` [Example 22a.2], the EC50 was in the range of 0.001 to 0.1 nM.

On to `COC(=O)N[C@H](C(=O)N1CC(F)(F)C[C@H]1c1ncc(-c2ccc(-c3ccc4c(ccc5[nH]c([C@@H]6CCCN6C(=O)[C@@H](NC(=O)OC)C(C)C)nc54)c3)cc2)[nH]1)C(C)C` [Example 22w], for which the EC50 lay within 0.001 to 0.1 nM. Regarding `COC(=O)N[C@H](C(=O)N1CCC[C@H]1c1nc2c([nH]1)CCCc1cc(-c3ccc(-c4cnc([C@@H]5CCCN5C(=O)CN(C)C)[nH]4)cc3)ccc1-2)C(C)C` [Example 24.a], the EC50 was in the range of 0.001 to 0.1 nM. On the same count and under the same terms, for `COC(=O)N[C@H](C(=O)N1CCC[C@H]1c1ncc(-c2ccc(-c3ccc4c(c3)CCc3[nH]c([C@@H]5CCCN5C(=O)[C@@H](NC(=O)OC)C(C)C)nc3-4)cc2)[nH]1)C(C)C` [Example 22r] the value was 0.001 to 0.1 nM. On the same count and under the same terms, then `CCN(CC)[C@@H](C(=O)N1CCC[C@H]1c1ncc(-c2ccc(-c3ccc4c(c3)CCCCc3[nH]c([C@@H]5CCCN5C(=O)[C@@H](c5ccccc5)N(CC)CC)nc3-4)cc2)[nH]1)c1ccccc1` [Example 22x.1a], with 0.001 to 0.1 nM; and `COC(=O)N[C@H](C(=O)N1CC(F)(F)C[C@H]1c1ncc(-c2ccc(-c3ccc4c(ccc5[nH]c([C@@H]6CC(F)(F)CN6C(=O)[C@@H](NC(=O)OC)C(C)C)nc54)c3)cc2)[nH]1)C(C)C` [Example 22w.2], with 0.001 to 0.1 nM. Take `CCN(CC)[C@@H](C(=O)N(C)[C@@H](C)c1nc2c([nH]1)CCCc1cc(-c3ccc(-c4cnc([C@@H]5CCCN5C(=O)[C@@H](c5ccccc5)N(CC)CC)[nH]4)cc3)ccc1-2)c1ccccc1` [Example 22b.1]: the EC50 was 0.001 to 0.1 nM. The same measure, in the same setting: then `COC(=O)N[C@H](C(=O)N1CCC[C@H]1c1ncc(-c2ccc(-c3ccc4c(c3)CCc3[nH]c([C@@H]5CCCN5C(=O)[C@@H](NC(=O)OC)C(C)C)nc3C4)cc2)[nH]1)C(C)C` [Example 22o], with 0.101 to 0.999 nM; and `CCN(CC)[C@@H](C(=O)N1CCC[C@H]1c1ncc(-c2ccc(-c3ccc4c(c3)CCCCc3c-4nc([C@@H]4CCCN4C(=O)[C@@H](c4ccccc4)N(CC)CC)n3O)cc2)[nH]1)c1ccccc1` [Example 22q.1], with 0.001 to 0.1 nM. Still for that read-out and setting: then `COC(=O)N[C@H](C(=O)N1CCC[C@H]1c1nc2ccc3cc(-c4ccc5c(ccc6[nH]c([C@@H]7CCCN7C(=O)[C@H](O)c7ccccc7)nc65)c4)ccc3c2[nH]1)C(C)C` [Example 24.1d], with 0.001 to 0.1 nM.
